Activity calls are given as the source filed them. The calls are words filed in the database; no cut-off is given here.
Tests used:
[1] = target: hERG (KCNH2) (Homo sapiens, UniProt Q12809); assay: Inhibition of human ERG at 20 uM relative to control
[2] = target: NACHT, LRR and PYD domains-containing protein 3 (Mus musculus) (UniProt Q8R4B8); assay: Inhibition of NLRP3 inflammasome activation in mouse BMDMs assessed as effect on NLRP3 expression at 2 to 31.25 nM pretreated with LPS for 3 hrs followed by compound addition for 40 mins; format: cell-based; conditions: BMDM, dose 2-31.25 nM
[3] = Tmax in BALB/c mouse at 5 mg/kg, po measured upto 24 hrs by LC-MS/MS analysis; format: ADME, organism-based; conditions: in vivo
[4] = target: Cytochrome P450 3A4 (Homo sapiens, UniProt P08684); assay: Inhibition of human CYP3A4 upto 10 uM relative to control; format: ADME
[5] = target: NACHT, LRR and PYD domains-containing protein 3 (Mus musculus) (UniProt Q8R4B8); assay: Inhibition of NLRP3 inflammasome activation in LPS/nigericin stimulated mouse BMDMs assessed as reduction in caspase-1 release pretreated with LPS for 3 hrs followed by compound addition for 40 mins prior to nigericin stimulation for 40 mins by Western blotting analysis; format: cell-based; conditions: BMDM, time 80.0 min
[6] = target: NACHT, LRR and PYD domains-containing protein 3 (Mus musculus) (UniProt Q8R4B8); assay: Inhibition of NLRP3 inflammasome activation in LPS/nigericin stimulated mouse BMDMs assessed as effect on pro-IL-1beta expression pretreated with LPS for 3 hrs followed by compound addition for 40 mins prior to nigericin stimulation for 40 mins by Western blotting analysis; format: cell-based; conditions: BMDM, time 80.0 min
[7] = MRT(0 to t) in BALB/c mouse at 5 mg/kg, iv measured upto 24 hrs by LC-MS/MS analysis; format: ADME, organism-based; conditions: in vivo
[8] = target: Cytochrome P450 2D6 (Homo sapiens, UniProt P10635); assay: Inhibition of human CYP2D6 at 10 uM relative to control; format: ADME
[9] = Inhibition of IL-1beta release in PMA-differentiated/ LPS and nigericin stimulated human THP-1 cells pretreated with LPS for 3 hrs followed by incubation with compound for 40 mins and later stimulated with nigericin for 40 mins by ELISA; format: functional, cell-based
[10] = target: NACHT, LRR and PYD domains-containing protein 3 (Mus musculus) (UniProt Q8R4B8); assay: Inhibition of NLRP3 inflammasome activation in mouse BMDMs assessed as effect on pro-IL-1beta expression at 2 to 31.25 nM pretreated with compound for 40 mins followed by LPS/nigericin stimulation; format: cell-based; conditions: BMDM, dose 2-31.25 nM
[11] = target: T1, Cytochrome P450 1A2 (Homo sapiens, UniProt P05177); assay: Inhibition of human CYP1A2 upto 10 uM relative to control; format: ADME
T1 sequence (P05177 whole entry): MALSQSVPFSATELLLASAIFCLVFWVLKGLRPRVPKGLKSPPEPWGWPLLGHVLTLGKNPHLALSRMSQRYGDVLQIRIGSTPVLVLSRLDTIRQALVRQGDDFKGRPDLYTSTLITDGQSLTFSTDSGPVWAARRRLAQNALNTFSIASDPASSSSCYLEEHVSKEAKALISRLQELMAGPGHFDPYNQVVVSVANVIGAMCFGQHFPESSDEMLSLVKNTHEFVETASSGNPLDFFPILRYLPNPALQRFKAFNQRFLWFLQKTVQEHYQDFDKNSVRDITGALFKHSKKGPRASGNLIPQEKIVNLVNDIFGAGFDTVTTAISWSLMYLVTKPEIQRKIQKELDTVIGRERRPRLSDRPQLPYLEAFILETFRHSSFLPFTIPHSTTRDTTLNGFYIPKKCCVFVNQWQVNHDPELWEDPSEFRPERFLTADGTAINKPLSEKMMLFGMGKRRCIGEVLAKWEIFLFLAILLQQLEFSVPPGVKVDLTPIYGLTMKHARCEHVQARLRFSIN

[12] = Cmax in BALB/c mouse at 5 mg/kg, po measured upto 24 hrs by LC-MS/MS analysis; format: ADME, organism-based; conditions: in vivo
[13] = target: NACHT, LRR and PYD domains-containing protein 3 (Mus musculus) (UniProt Q8R4B8); assay: Inhibition of NLRP3 inflammasome activation in LPS/nigericin stimulated mouse BMDMs assessed as effect on NLRP3 expression pretreated with LPS for 3 hrs followed by compound addition for 40 mins prior to nigericin stimulation for 40 mins by Western blotting analysis; format: cell-based; conditions: BMDM, time 80.0 min
[14] = target: NACHT, LRR and PYD domains-containing protein 3 (Mus musculus) (UniProt Q8R4B8); assay: Inhibition of NLRP3 inflammasome activation in LPS stimulated mouse BMDMs assessed as reduction in IL-1beta release at 2 to 31.25 nM pretreated with LPS for 3 hrs followed by compound addition for 40 mins prior to alum stimulation for 6 hrs by ELISA; format: cell-based; conditions: BMDM, dose 2-31.25 nM, time 400.0 min
[15] = target: NACHT, LRR and PYD domains-containing protein 3 (Mus musculus) (UniProt Q8R4B8); assay: Inhibition of NLRP3 inflammasome activation in mouse BMDMs assessed as effect on pro-IL-1beta expression at 2 to 31.25 nM pretreated with LPS for 3 hrs followed by compound addition for 40 mins; format: cell-based; conditions: BMDM, dose 2-31.25 nM
[16] = target: NACHT, LRR and PYD domains-containing protein 3 (Mus musculus) (UniProt Q8R4B8); assay: Inhibition of NLRP3 inflammasome activation in LPS/nigericin stimulated mouse BMDMs assessed as effect on pro-caspase-1 expression pretreated with LPS for 3 hrs followed by compound addition for 40 mins prior to nigericin stimulation for 40 mins by Western blotting analysis; format: cell-based; conditions: BMDM, time 80.0 min
[17] = tested on: Mus musculus; assay: Inhibition of MSU crystal induced peritonitis in BALB/c mouse assessed as reduction in IL-1beta level in peritoneal lavage fluids at 50 to 100 mg/kg, ip pretreated with LPS for 3 hrs followed by compound addition prior to MSU stimulation for 6 hrs by ELISA; format: functional, organism-based; conditions: dose 50-100 mg/kg
[18] = target: NACHT, LRR and PYD domains-containing protein 3 (Mus musculus) (UniProt Q8R4B8); assay: Inhibition of NLRP3 inflammasome activation in LPS/nigericin stimulated mouse BMDMs assessed as effect on ASC expression pretreated with LPS for 3 hrs followed by compound addition for 40 mins prior to nigericin stimulation for 40 mins by Western blotting analysis; format: cell-based; conditions: BMDM, time 80.0 min
[19] = target: NACHT, LRR and PYD domains-containing protein 3 (Mus musculus) (UniProt Q8R4B8); assay: Inhibition of NLRP3 inflammasome activation in LPS stimulated mouse BMDMs assessed as reduction in IL-1beta release at 2 to 31.25 nM pretreated with LPS for 3 hrs followed by compound addition for 40 mins prior to ATP stimulation for 1 hr by ELISA; format: cell-based; conditions: BMDM, dose 2-31.25 nM, time 100.0 min
[20] = Metabolic stability in human liver microsomes assessed as half life at 10 uM […] in presence of NADPH by LC-MS/MS analysis; format: ADME, Microsome
[21] = target: NLR family CARD domain-containing protein 4 (Mus musculus) (UniProt Q3UP24); assay: Inhibition of flagellin stimulated NLRC4 inflammasome activation in mouse BMDMs assessed as reduction in IL-1beta secretion pretreated with LPS for 3 hrs followed by compound addition for 40 mins prior to flagellin stimulation for 6 hrs by Western blotting analysis; format: cell-based; conditions: BMDM, time 400.0 min
[22] = Half-life in BALB/c mouse at 5 mg/kg, po measured upto 24 hrs by LC-MS/MS analysis; format: ADME, organism-based; conditions: in vivo
[23] = target: NACHT, LRR and PYD domains-containing protein 3 (Mus musculus) (UniProt Q8R4B8); assay: Inhibition of NLRP3 inflammasome activation in mouse BMDMs assessed as effect on NLRP3 expression at 2 to 31.25 nM pretreated with compound for 40 mins followed by LPS/nigericin stimulation; format: cell-based; conditions: BMDM, dose 2-31.25 nM
[24] = target: NACHT, LRR and PYD domains-containing protein 3 (Mus musculus) (UniProt Q8R4B8); assay: Inhibition of NLRP3 inflammasome activation in LPS stimulated mouse BMDMs assessed as reduction in IL-1beta release at 2 to 31.25 nM pretreated with LPS for 3 hrs followed by compound addition for 40 mins prior to MSU stimulation for 6 hrs by ELISA; format: cell-based; conditions: BMDM, dose 2-31.25 nM, time 400.0 min
[25] = AUC(0 to t) in BALB/c mouse at 5 mg/kg, po measured upto 24 hrs by LC-MS/MS analysis; format: ADME, organism-based; conditions: in vivo

Chain of NACHT, LRR and PYD domains-containing protein 3 (Mus musculus) (Q8R4B8 whole entry, the tested form may be a part): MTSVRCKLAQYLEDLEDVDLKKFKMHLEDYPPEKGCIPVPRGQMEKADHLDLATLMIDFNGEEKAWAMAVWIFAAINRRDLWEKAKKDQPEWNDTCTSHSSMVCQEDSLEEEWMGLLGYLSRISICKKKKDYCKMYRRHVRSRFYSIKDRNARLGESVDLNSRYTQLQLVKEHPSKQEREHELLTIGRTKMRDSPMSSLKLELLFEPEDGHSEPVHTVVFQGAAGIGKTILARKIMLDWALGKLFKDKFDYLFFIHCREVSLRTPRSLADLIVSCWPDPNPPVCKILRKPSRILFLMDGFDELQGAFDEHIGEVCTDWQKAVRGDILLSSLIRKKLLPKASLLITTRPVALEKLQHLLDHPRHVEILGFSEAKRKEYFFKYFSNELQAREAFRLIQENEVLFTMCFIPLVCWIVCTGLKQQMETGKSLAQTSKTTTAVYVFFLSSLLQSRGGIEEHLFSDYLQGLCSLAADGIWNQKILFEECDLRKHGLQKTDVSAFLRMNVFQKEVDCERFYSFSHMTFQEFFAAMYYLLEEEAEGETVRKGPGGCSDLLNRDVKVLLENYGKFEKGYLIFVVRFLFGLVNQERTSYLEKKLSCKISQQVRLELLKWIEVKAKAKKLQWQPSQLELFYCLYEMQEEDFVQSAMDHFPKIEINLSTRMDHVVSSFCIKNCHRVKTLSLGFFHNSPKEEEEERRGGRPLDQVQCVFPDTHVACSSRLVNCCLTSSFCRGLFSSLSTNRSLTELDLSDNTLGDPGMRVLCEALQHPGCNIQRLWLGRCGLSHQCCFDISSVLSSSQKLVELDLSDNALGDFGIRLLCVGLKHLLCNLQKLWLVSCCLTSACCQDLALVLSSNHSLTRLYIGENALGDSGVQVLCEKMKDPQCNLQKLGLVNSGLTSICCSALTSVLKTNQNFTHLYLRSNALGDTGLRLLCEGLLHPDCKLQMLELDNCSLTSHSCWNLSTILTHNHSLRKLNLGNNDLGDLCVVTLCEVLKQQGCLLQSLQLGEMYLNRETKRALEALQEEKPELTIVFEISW
Chain of Cytochrome P450 3A4 (P08684 whole entry, the tested form may be a part): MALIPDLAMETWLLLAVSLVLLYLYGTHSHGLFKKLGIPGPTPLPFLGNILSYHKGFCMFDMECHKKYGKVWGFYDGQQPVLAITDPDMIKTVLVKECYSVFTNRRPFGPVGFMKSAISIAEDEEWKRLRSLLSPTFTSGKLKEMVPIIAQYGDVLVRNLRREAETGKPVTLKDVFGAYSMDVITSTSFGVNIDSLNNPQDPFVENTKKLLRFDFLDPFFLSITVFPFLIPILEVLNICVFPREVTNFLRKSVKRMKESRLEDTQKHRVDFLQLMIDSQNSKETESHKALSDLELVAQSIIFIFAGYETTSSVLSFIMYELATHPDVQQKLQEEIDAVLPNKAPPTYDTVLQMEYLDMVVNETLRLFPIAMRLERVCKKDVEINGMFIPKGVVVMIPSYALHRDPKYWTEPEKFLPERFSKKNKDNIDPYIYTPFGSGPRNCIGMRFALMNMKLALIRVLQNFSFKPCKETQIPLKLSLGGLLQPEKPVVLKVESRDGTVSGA
Chain of hERG (KCNH2) (Q12809 whole entry, the tested form may be a part): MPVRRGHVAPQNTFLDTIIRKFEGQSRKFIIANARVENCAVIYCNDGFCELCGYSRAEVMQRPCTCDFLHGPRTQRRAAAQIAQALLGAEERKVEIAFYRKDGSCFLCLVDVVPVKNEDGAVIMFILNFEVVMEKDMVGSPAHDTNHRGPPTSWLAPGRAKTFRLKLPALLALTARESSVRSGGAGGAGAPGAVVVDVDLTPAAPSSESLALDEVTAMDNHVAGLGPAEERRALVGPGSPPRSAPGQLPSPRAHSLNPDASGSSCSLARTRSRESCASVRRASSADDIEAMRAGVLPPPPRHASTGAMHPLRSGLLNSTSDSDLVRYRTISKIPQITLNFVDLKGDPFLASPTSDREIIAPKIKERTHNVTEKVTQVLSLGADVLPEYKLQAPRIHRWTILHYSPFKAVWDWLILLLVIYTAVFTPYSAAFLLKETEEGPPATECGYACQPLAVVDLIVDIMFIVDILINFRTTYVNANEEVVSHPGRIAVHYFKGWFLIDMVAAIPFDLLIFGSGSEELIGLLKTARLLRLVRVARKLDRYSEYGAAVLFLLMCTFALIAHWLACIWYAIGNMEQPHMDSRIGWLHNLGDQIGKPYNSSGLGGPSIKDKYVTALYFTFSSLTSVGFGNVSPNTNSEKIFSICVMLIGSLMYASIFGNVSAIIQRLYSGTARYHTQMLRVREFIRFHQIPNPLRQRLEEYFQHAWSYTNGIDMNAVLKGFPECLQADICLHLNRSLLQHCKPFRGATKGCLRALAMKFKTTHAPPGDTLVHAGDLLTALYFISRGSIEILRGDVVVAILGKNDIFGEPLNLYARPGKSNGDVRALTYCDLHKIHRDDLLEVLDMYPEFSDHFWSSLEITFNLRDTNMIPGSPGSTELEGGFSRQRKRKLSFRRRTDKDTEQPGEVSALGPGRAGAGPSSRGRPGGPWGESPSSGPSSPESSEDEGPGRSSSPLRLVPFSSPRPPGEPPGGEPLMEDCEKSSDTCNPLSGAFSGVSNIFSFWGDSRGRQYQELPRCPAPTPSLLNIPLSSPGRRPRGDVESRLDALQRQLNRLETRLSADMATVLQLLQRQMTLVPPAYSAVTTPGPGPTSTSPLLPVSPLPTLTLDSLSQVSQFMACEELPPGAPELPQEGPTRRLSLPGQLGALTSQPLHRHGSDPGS
Chain of Cytochrome P450 2D6 (P10635 whole entry): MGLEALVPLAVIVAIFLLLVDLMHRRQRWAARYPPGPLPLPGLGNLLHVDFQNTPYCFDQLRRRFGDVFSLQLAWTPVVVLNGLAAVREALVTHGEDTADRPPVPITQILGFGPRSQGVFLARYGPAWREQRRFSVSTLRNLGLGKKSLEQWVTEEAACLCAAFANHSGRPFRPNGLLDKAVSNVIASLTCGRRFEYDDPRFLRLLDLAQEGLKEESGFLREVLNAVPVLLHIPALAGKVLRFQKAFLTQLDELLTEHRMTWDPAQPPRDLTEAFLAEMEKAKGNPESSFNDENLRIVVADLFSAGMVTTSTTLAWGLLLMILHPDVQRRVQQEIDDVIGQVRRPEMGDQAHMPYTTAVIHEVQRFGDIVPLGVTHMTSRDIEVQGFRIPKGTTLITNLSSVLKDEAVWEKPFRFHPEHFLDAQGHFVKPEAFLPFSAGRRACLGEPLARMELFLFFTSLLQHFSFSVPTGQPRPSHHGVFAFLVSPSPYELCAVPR
Chain of NLR family CARD domain-containing protein 4 (Mus musculus) (Q3UP24 whole entry, the tested form may be a part): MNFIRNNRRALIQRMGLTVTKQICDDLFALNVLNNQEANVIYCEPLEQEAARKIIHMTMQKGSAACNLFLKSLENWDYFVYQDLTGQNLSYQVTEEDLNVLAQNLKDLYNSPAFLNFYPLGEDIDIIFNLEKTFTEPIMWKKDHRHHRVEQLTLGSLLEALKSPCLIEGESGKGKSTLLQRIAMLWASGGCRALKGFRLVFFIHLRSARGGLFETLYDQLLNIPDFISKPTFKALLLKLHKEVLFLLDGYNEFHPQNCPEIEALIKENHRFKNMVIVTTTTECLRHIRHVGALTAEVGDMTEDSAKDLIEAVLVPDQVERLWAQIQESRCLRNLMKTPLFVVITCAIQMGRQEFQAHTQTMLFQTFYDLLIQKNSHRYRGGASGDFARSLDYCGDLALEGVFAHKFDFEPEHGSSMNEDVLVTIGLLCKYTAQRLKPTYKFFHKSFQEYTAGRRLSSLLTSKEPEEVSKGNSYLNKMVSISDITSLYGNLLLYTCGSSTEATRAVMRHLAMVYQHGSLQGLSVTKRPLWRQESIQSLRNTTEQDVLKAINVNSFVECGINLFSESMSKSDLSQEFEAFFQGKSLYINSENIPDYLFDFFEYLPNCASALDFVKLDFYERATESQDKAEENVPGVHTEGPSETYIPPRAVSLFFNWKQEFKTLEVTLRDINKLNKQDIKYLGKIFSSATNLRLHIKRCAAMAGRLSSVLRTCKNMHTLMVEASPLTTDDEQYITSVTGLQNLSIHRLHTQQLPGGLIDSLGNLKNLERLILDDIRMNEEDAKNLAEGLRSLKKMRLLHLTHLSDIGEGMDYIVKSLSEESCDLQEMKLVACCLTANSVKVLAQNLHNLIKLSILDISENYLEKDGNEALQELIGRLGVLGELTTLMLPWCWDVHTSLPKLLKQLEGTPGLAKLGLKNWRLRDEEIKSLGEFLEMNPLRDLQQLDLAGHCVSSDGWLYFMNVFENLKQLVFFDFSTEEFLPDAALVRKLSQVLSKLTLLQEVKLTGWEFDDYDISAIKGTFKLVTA

In the case of `OCCN1CCC[C@@H](Nc2nnc(-c3ccc4occc4c3O)c3c2C2CCC3CC2)C1`, the inhibition at 20 µM [1] is reported as 49.1%, the inhibition [2] is reported as “inactive” and the Tmax [3] is reported as 1.83 h. The “inhibition (INH)” value [4] was “Not Active”, the inhibition [5] was “Dose-Dependent Effect” and the inhibition [6] was “inactive”. The MRT last at 24 h [7] was 4.1 h, the “inhibition (INH)” value [8] was “Active” and the IC50 [9] was 3 nM. For the same compound, the inhibition [10] was “inactive”, the “inhibition (INH)” value [11] was “Not Active” and the Cmax [12] was 0.746 µg/mL. For the same compound, the inhibition [13] was “inactive”, the inhibition [14] was “Active” and the inhibition [15] was “inactive”. The inhibition [16] was “inactive”, the inhibition [17] was “Active” and the inhibition [18] was “inactive”. The inhibition [19] was “Active”, the half-life at 10 µM [20] was greater than 2 h and the inhibition [21] was “inactive”. The half-life [22] was 4.74 h, the inhibition [23] was “inactive” and the inhibition [24] was “Active”. It also gave an AUC(0-t) at 24 h [25] of 5.94 µg·h/mL.

From ChEMBL document CHEMBL5584341, “Discovery of Potent, Specific, and Orally Available NLRP3 Inflammasome Inhibitors Based on Pyridazine Scaffolds for the Treatment of Septic Shock and Peritonitis” (J Med Chem, 2024)
